# Reference: patent US11357230B2, “Herbicidal amides” (FMC Corporation, priority 2017, dated 2022)
# Columns and labels:
# Assay type in all cases: in vivo
# [1] = test system: barnyardgrass (Echinochloa crus-galli); assay: Test A preemergence, barnyardgrass; details: approximately 10 d
# Excerpt: (§1) Seeds of plant species selected from barnyardgrass (Echinochloa crus-galli), kochia (Kochia scoparia), ragweed (common ragweed, Ambrosia elatior), ryegrass, Italian (Italian ryegrass, Lolium multiflorum), foxtail, green (green foxtail, Setaria viridis), and pigweed (Amaranthus retroflexus) were planted into a blend of loam soil and sand and treated preemergence with a directed soil spray using test chemicals formulated in a non-phytotoxic solvent mixture which included a surfactant. At the same time, plants selected from these weed species and also wheat (Triticum aestivum), corn (Zea mays), blackgrass (Alopecurus myosuroides), and galium (catchweed bedstraw, Galium aparine) were planted in pots containing the same blend of loam soil and sand and treated with postemergence applications of test chemicals formulated in the same manner. Plants ranged in height from 2 to 10 cm and were in the one- to two-leaf stage for the postemergence treatment. Treated plants and untreated controls were maintained in a greenhouse for approximately 10 d, after which time all treated plants were compared to untreated controls and visually evaluated for injury. Plant response ratings, summarized in Table A, are based on a 0 to 100 scale where 0 is no effect and 100 is complete control. A dash (-) response means no test result.
# [2] = test system: blackgrass (Alopecurus myosuroides); assay: Test A postemergence, blackgrass; details: approximately 10 d
# Excerpt: as §1
# [3] = test system: foxtail, green (green foxtail, Setaria viridis); assay: Test A preemergence, green foxtail; details: approximately 10 d
# Excerpt: as §1
# [4] = test system: barnyardgrass (Echinochloa crus-galli); assay: Test A postemergence, barnyardgrass; details: approximately 10 d
# Excerpt: as §1
# [5] = test system: ragweed (common ragweed, Ambrosia elatior); assay: Test A preemergence, ragweed; details: approximately 10 d
# Excerpt: as §1
# [6] = test system: ducksalad (Heteranthera limosa); assay: Test B flooded paddy test, ducksalad; details: 250 g ai/ha, Flood (paddy water), 13 to 15 d
# Method: (§2) Plant species in the flooded paddy test selected from rice (Oryza sativa), sedge, umbrella (small-flower umbrella sedge, Cyperus difformis), ducksalad (Heteranthera limosa), and barnyardgrass (Echinochloa crus-galli) were grown to the 2-leaf stage for testing. At time of treatment, test pots were flooded to 3 cm above the soil surface, treated by application of test compounds directly to the paddy water, and then maintained at that water depth for the duration of the test. Treated plants and controls were maintained in a greenhouse for 13 to 15 d, after which time all species were compared to controls and visually evaluated. Plant response ratings, summarized in Table B, are based on a scale of 0 to 100 where 0 is no effect and 100 is complete control. A dash (-) response means no test result.
# [7] = test system: barnyardgrass (Echinochloa crus-galli); assay: Test B flooded paddy test, barnyardgrass; details: 250 g ai/ha, Flood (paddy water), 13 to 15 d
# Method: as §2
# [8] = test system: galium (catchweed bedstraw, Galium aparine); assay: Test A postemergence, galium; details: approximately 10 d
# Excerpt: as §1
# [9] = test system: pigweed (Amaranthus retroflexus); assay: Test A preemergence, pigweed; details: approximately 10 d
# Excerpt: as §1
# rice (Oryza sativa) = assay: Test B flooded paddy test, rice; details: 250 g ai/ha, Flood (paddy water), 13 to 15 d
# Method: as §2
# [10] = test system: foxtail, green (green foxtail, Setaria viridis); assay: Test A postemergence, green foxtail; details: approximately 10 d
# Excerpt: as §1
# [11] = test system: ryegrass, Italian (Italian ryegrass, Lolium multiflorum); assay: Test A postemergence, Italian ryegrass; details: approximately 10 d
# Excerpt: as §1
# kochia (Kochia scoparia) [12] = assay: Test A preemergence, kochia; details: approximately 10 d
# Excerpt: as §1
# kochia (Kochia scoparia) [13] = assay: Test A postemergence, kochia; details: approximately 10 d
# Excerpt: as §1
# [14] = test system: ryegrass, Italian (Italian ryegrass, Lolium multiflorum); assay: Test A preemergence, Italian ryegrass; details: approximately 10 d
# Excerpt: as §1
# corn (Zea mays) = assay: Test A postemergence, corn; details: approximately 10 d
# Excerpt: as §1
# [15] = test system: sedge, umbrella (small-flower umbrella sedge, Cyperus difformis); assay: Test B flooded paddy test, umbrella sedge; details: 250 g ai/ha, Flood (paddy water), 13 to 15 d
# Method: as §2
# [16] = test system: wheat (Triticum aestivum); assay: Test A postemergence, wheat; details: approximately 10 d
# Excerpt: as §1
# [17] = test system: pigweed (Amaranthus retroflexus); assay: Test A postemergence, pigweed; details: approximately 10 d
# Excerpt: as §1
# [18] = test system: ragweed (common ragweed, Ambrosia elatior); assay: Test A postemergence, ragweed; details: approximately 10 d
# Excerpt: as §1
# Foxtail, Giant [19] = assay: Test A postemergence, giant foxtail; details: approximately 10 d
# Foxtail, Giant [20] = assay: Test A preemergence, giant foxtail; details: approximately 10 d
SMILES,"Plant response rating (0 to 100 scale, 0 is no effect, 100 is complete control) ([1]; 31 g ai/ha)","Plant response rating (0 to 100 scale, 0 is no effect, 100 is complete control) ([1]; 125 g ai/ha)","Plant response rating (0 to 100 scale, 0 is no effect, 100 is complete control) ([2]; 31 g ai/ha)","Plant response rating (0 to 100 scale, 0 is no effect, 100 is complete control) ([2]; 125 g ai/ha)","Plant response rating (0 to 100 scale, 0 is no effect, 100 is complete control) ([4]; 31 g ai/ha)","Plant response rating (0 to 100 scale, 0 is no effect, 100 is complete control) ([4]; 125 g ai/ha)","Plant response rating (0 to 100 scale, 0 is no effect, 100 is complete control) ([5]; 125 g ai/ha)","Plant response rating (scale of 0 to 100, 0 is no effect, 100 is complete control) [6]","Plant response rating (scale of 0 to 100, 0 is no effect, 100 is complete control) [7]","Plant response rating (0 to 100 scale, 0 is no effect, 100 is complete control) ([8]; 31 g ai/ha)","Plant response rating (0 to 100 scale, 0 is no effect, 100 is complete control) ([8]; 125 g ai/ha)","Plant response rating (0 to 100 scale, 0 is no effect, 100 is complete control) ([9]; 31 g ai/ha)","Plant response rating (0 to 100 scale, 0 is no effect, 100 is complete control) ([9]; 125 g ai/ha)","Plant response rating (scale of 0 to 100, 0 is no effect, 100 is complete control) (rice (Oryza sativa))","Plant response rating (0 to 100 scale, 0 is no effect, 100 is complete control) ([11]; 31 g ai/ha)","Plant response rating (0 to 100 scale, 0 is no effect, 100 is complete control) ([11]; 125 g ai/ha)","Plant response rating (0 to 100 scale, 0 is no effect, 100 is complete control) (kochia (Kochia scoparia) [12]; 31 g ai/ha)","Plant response rating (0 to 100 scale, 0 is no effect, 100 is complete control) (kochia (Kochia scoparia) [12]; 125 g ai/ha)","Plant response rating (0 to 100 scale, 0 is no effect, 100 is complete control) (kochia (Kochia scoparia) [13]; 31 g ai/ha)","Plant response rating (0 to 100 scale, 0 is no effect, 100 is complete control) (kochia (Kochia scoparia) [13]; 125 g ai/ha)",other results
"CN1C[C@H](c2ccc(C(F)(F)F)cc2)[C@@H](C(=O)Nc2cccc(F)c2F)C1=NNC(=O)C(C)(C)C [Compound 1, 2-[(3R,4S)-3-[[(2,3-difluorophenyl)amino]carbonyl]-1-methyl-4-[4-(trifluoromethyl)phenyl]-2-pyrrolidinylidene]hydrazide 2,2-dimethylpropanoic Acid]",80,100,10,50,40,80,100,30,65,0,10,50,90,0,20,60,0,60,0,0,"Plant response rating (0 to 100 scale, 0 is no effect, 100 is complete control) ([3]; 31 g ai/ha): 50; Plant response rating (0 to 100 scale, 0 is no effect, 100 is complete control) ([3]; 125 g ai/ha): 100; Plant response rating (0 to 100 scale, 0 is no effect, 100 is complete control) ([5]; 31 g ai/ha): 0; Plant response rating (0 to 100 scale, 0 is no effect, 100 is complete control) ([10]; 31 g ai/ha): 40; Plant response rating (0 to 100 scale, 0 is no effect, 100 is complete control) ([10]; 125 g ai/ha): 80; Plant response rating (0 to 100 scale, 0 is no effect, 100 is complete control) ([14]; 31 g ai/ha): 0; Plant response rating (0 to 100 scale, 0 is no effect, 100 is complete control) ([14]; 125 g ai/ha): 0; Plant response rating (0 to 100 scale, 0 is no effect, 100 is complete control) (corn (Zea mays); 31 g ai/ha): 0; Plant response rating (0 to 100 scale, 0 is no effect, 100 is complete control) (corn (Zea mays); 125 g ai/ha): 40; Plant response rating (scale of 0 to 100, 0 is no effect, 100 is complete control) [15]: 0; Plant response rating (0 to 100 scale, 0 is no effect, 100 is complete control) ([16]; 31 g ai/ha): 0; Plant response rating (0 to 100 scale, 0 is no effect, 100 is complete control) ([16]; 125 g ai/ha): 30; Plant response rating (0 to 100 scale, 0 is no effect, 100 is complete control) ([17]; 31 g ai/ha): 0; Plant response rating (0 to 100 scale, 0 is no effect, 100 is complete control) ([17]; 125 g ai/ha): 0; Plant response rating (0 to 100 scale, 0 is no effect, 100 is complete control) ([18]; 31 g ai/ha): 0; Plant response rating (0 to 100 scale, 0 is no effect, 100 is complete control) ([18]; 125 g ai/ha): 0"
CNN=C1[C@H](C(=O)Nc2cccc(F)c2F)[C@@H](c2ccc(C(F)(F)F)cc2)CN1C (relative stereo) [Compound 3],30,90,40,80,60,70,0,100,70,60,80,0,70,0,0,40,0,30,20,60,"Plant response rating (0 to 100 scale, 0 is no effect, 100 is complete control) (Foxtail, Giant [19]; 31 g ai/ha): 40; Plant response rating (0 to 100 scale, 0 is no effect, 100 is complete control) (Foxtail, Giant [19]; 125 g ai/ha): 70; Plant response rating (0 to 100 scale, 0 is no effect, 100 is complete control) ([5]; 31 g ai/ha): 0; Plant response rating (0 to 100 scale, 0 is no effect, 100 is complete control) (Foxtail, Giant [20]; 31 g ai/ha): 70; Plant response rating (0 to 100 scale, 0 is no effect, 100 is complete control) (Foxtail, Giant [20]; 125 g ai/ha): 90; Plant response rating (0 to 100 scale, 0 is no effect, 100 is complete control) ([14]; 31 g ai/ha): 0; Plant response rating (0 to 100 scale, 0 is no effect, 100 is complete control) ([14]; 125 g ai/ha): 90; Plant response rating (0 to 100 scale, 0 is no effect, 100 is complete control) (corn (Zea mays); 31 g ai/ha): 20; Plant response rating (0 to 100 scale, 0 is no effect, 100 is complete control) (corn (Zea mays); 125 g ai/ha): 30; Plant response rating (scale of 0 to 100, 0 is no effect, 100 is complete control) [15]: 0; Plant response rating (0 to 100 scale, 0 is no effect, 100 is complete control) ([16]; 31 g ai/ha): 0; Plant response rating (0 to 100 scale, 0 is no effect, 100 is complete control) ([16]; 125 g ai/ha): 30; Plant response rating (0 to 100 scale, 0 is no effect, 100 is complete control) ([17]; 31 g ai/ha): 0; Plant response rating (0 to 100 scale, 0 is no effect, 100 is complete control) ([17]; 125 g ai/ha): 90; Plant response rating (0 to 100 scale, 0 is no effect, 100 is complete control) ([18]; 31 g ai/ha): 0; Plant response rating (0 to 100 scale, 0 is no effect, 100 is complete control) ([18]; 125 g ai/ha): 50"
CN1C[C@H](c2ccc(C(F)(F)F)cc2)[C@@H](C(=O)Nc2cccc(F)c2F)C1=NNC(=O)OC(C)(C)C (relative stereo) [Compound 8],90,90,30,60,60,80,20,60,75,60,70,30,80,0,10,60,20,80,0,0,"Plant response rating (0 to 100 scale, 0 is no effect, 100 is complete control) (Foxtail, Giant [19]; 31 g ai/ha): 50; Plant response rating (0 to 100 scale, 0 is no effect, 100 is complete control) (Foxtail, Giant [19]; 125 g ai/ha): 80; Plant response rating (0 to 100 scale, 0 is no effect, 100 is complete control) (Foxtail, Giant [20]; 31 g ai/ha): 90; Plant response rating (0 to 100 scale, 0 is no effect, 100 is complete control) (Foxtail, Giant [20]; 125 g ai/ha): 90; Plant response rating (0 to 100 scale, 0 is no effect, 100 is complete control) ([14]; 31 g ai/ha): 20; Plant response rating (0 to 100 scale, 0 is no effect, 100 is complete control) ([14]; 125 g ai/ha): 70; Plant response rating (0 to 100 scale, 0 is no effect, 100 is complete control) (corn (Zea mays); 31 g ai/ha): 20; Plant response rating (0 to 100 scale, 0 is no effect, 100 is complete control) (corn (Zea mays); 125 g ai/ha): 70; Plant response rating (scale of 0 to 100, 0 is no effect, 100 is complete control) [15]: 0; Plant response rating (0 to 100 scale, 0 is no effect, 100 is complete control) ([16]; 31 g ai/ha): 0; Plant response rating (0 to 100 scale, 0 is no effect, 100 is complete control) ([16]; 125 g ai/ha): 40; Plant response rating (0 to 100 scale, 0 is no effect, 100 is complete control) ([17]; 31 g ai/ha): 30; Plant response rating (0 to 100 scale, 0 is no effect, 100 is complete control) ([17]; 125 g ai/ha): 40; Plant response rating (0 to 100 scale, 0 is no effect, 100 is complete control) ([18]; 31 g ai/ha): 0; Plant response rating (0 to 100 scale, 0 is no effect, 100 is complete control) ([18]; 125 g ai/ha): 0"
